In experiment [1] the test system is Staphylococcus aureus. In words: Antibacterial activity against methicillin-resistant Staphylococcus aureus ATCC 33591 incubated for 18 hrs by two fold dilution method. As to conditions: ATCC 33591, 18 h. In kind it is functional.
The subject of experiment [2] is Candida parapsilosis. Put plainly: Antifungal activity against azole-resistant Candida parapsilosis Cas08-0490 incubated for 24 to 36 hrs by two fold dilution method. In kind it is functional. As to conditions: Lodderomyces parapsilosis.
Experiment [3] relates to Diutina rugosa. Put plainly: Antifungal activity against Candida rugosa 95-967 incubated for 24 to 36 hrs by two fold dilution method. Format: functional.
Experiment [4] has as its system Cryptococcus neoformans. Put plainly: Antifungal activity against Cryptococcus neoformans VR-54 incubated for 24 to 36 hrs by two fold dilution method. In kind it is functional.
Experiment [5] relates to Candida albicans. Put plainly: Antifungal activity against azole-susceptible Candida albicans MYA2876 incubated for 24 to 36 hrs by two fold dilution method. Format: functional.
Experiment [6] has as its system HeLa. In words: Cytotoxicity against human HeLa cells assessed as reduction in cell viability incubated for 24 hrs by MTT assay. In kind it is cell-based. On the technique in general: Tetrazolium assays rely on reduction of a dye to a coloured formazan, in cell work by metabolically active cells.
The test system of experiment [7] is Candida albicans. In words: Antifungal activity against azole-resistant Candida albicans 64124 incubated for 24 to 36 hrs by two fold dilution method. Format: functional.
Experiment [8] relates to Staphylococcus aureus. In words: Antibacterial activity against Staphylococcus aureus ATCC 25923 incubated for 18 hrs by two fold dilution method. In kind it is functional. As to conditions: ATCC 25923, 18 h.
Experiment [9] has as its system Escherichia coli. Put plainly: Antibacterial activity against Escherichia coli ATCC 25922 incubated for 18 hrs by two fold dilution method. Format: functional. As to conditions: ATCC 25922, 18 h.
Experiment [10] deals with Candida tropicalis. In words: Antifungal activity against Candida tropicalis 95-41 incubated for 24 to 36 hrs by two fold dilution method. In kind it is functional.
Experiment [11] deals with Candida albicans. In words: Antifungal activity against Candida albicans B-311 incubated for 24 to 36 hrs by two fold dilution method. Format: functional.
In experiment [12] the test system is Rhodotorula mucilaginosa. Put plainly: Antifungal activity against Rhodotorula pilimanae ATCC 26423 incubated for 24 to 36 hrs by two fold dilution method. In kind it is functional.
The subject of experiment [13] is Cryptococcus neoformans. In words: Antifungal activity against Cryptococcus neoformans H99 incubated for 24 to 36 hrs by two fold dilution method. In kind it is functional.
In experiment [14] the test system is Fusarium graminearum. In words: Antifungal activity against Fusarium graminearum B4-5A incubated for 24 to 36 hrs by two fold dilution method. In kind it is functional.
In experiment [15] the test system is Staphylococcus aureus. Put plainly: Antibacterial activity against methicillin-resistant Staphylococcus aureus ATCC 43300 incubated for 18 hrs by two fold dilution method. In kind it is functional. As to conditions: ATCC 43300, 18 h.
Experiment [16] deals with Candida albicans. Put plainly: Induction of membrane permeabilization in azole-susceptible Candida albicans MYA2876 at 1/4 times MIC incubated for 5 mins by phase contrast microscopic method. In kind it is functional, organism-based.
The test system of experiment [17] is Escherichia coli. In words: Induction of membrane permeabilization in Escherichia coli ATCC 25922 at MIC incubated for 5 mins by phase contrast microscopic method. Format: functional, organism-based.
Experiment [18] concerns Candida albicans. Put plainly: Induction of membrane permeabilization in azole-resistant Candida albicans 64124 at 1/4 times MIC incubated for 5 mins by phase contrast microscopic method. In kind it is functional, organism-based.
Experiment [19] deals with Escherichia coli. Put plainly: Induction of membrane permeabilization in Escherichia coli ATCC 25922 at MIC incubated for 60 mins by phase contrast microscopic method. Format: functional, organism-based.
The test system of experiment [20] is Staphylococcus aureus. Put plainly: Induction of membrane permeabilization in Staphylococcus aureus at 1/2 times MIC incubated for 5 mins by phase contrast microscopic method. In kind it is functional, organism-based.
Experiment [21] has as its system Staphylococcus aureus. Put plainly: Induction of membrane permeabilization in Staphylococcus aureus at 1/2 times MIC incubated for 60 mins by phase contrast microscopic method. Format: functional, organism-based.

The structures appear in SMILES notation. Calls of active or inactive are those of the source. The rule behind the calls is not given here.

What is called MIC is the lowest concentration that inhibits growth of the organism. A high value points to weaker potency. One may read the IC50 as the concentration at which inhibition is half-maximal.

Take `CCCCCCCCCCCCNC[C@H]1O[C@H](O[C@@H]2[C@@H](O)[C@H](O[C@H]3O[C@H](CN)[C@@H](O)[C@H](O)[C@H]3O)[C@@H](N)C[C@H]2N)[C@H](O)[C@@H](N)[C@@H]1O.Cl.Cl.Cl.Cl.Cl`: the MIC came to 64 µg/mL in [1]; 32 µg/mL in [2]; 16 µg/mL in [3]; 2 µg/mL in experiment [4]; 64 µg/mL in experiment [5]; 16 µg/mL in experiment [7]. The MIC in experiment [8] amounted to 64 µg/mL; in [9] it was 16 µg/mL; in [10] it was 32 µg/mL; in experiment [11], 32 µg/mL; in experiment [12], 2 µg/mL; in [13], 2 µg/mL. Further, the figures for the MIC in experiment [14] and in experiment [15] were 2 µg/mL and 32 µg/mL, respectively. Moreover, the IC50 in experiment [6] was more than 100 µg/mL.

As to `CCCCCCCCCCCCCCCCSC[C@H]1O[C@H](O[C@@H]2[C@@H](O)[C@H](O[C@H]3O[C@H](CN)[C@@H](O)[C@H](O)[C@H]3O)[C@@H](N)C[C@H]2N)[C@H](O)[C@@H](N)[C@@H]1O.Cl.Cl.Cl.Cl`, the MIC in [1] was found to be 32 µg/mL; in experiment [2], 4 µg/mL; in experiment [3], 4 µg/mL; in [4], 2 µg/mL; in experiment [5] it was 4 µg/mL; in [7] it was 4 µg/mL. Moreover, the MIC was found to be 16 µg/mL in experiment [8]; 32 µg/mL in experiment [9]; 4 µg/mL in [10]; 4 µg/mL in experiment [11]; 2 µg/mL in [12]; 2 µg/mL in [13]. The MIC in experiment [14] is 2 µg/mL; in experiment [15], 16 µg/mL. The IC50 in [6] is 37.7 µg/mL.

With `Cl.Cl.Cl.Cl.NC[C@H]1O[C@H](O[C@H]2[C@H](O)[C@@H](O[C@H]3O[C@H](CNC(=O)c4ccccc4-c4c5ccc(=O)cc-5oc5cc(O)ccc45)[C@@H](O)[C@H](N)[C@H]3O)[C@H](N)C[C@@H]2N)[C@H](O)[C@@H](O)[C@@H]1O`, the MIC was more than 256 µg/mL in [1]; 64 µg/mL in [4]; 256 µg/mL in experiment [5]; 128 µg/mL in [7]; 64 µg/mL in [8]; 32 µg/mL in experiment [9]. Besides, the MIC was 32 µg/mL in experiment [12], 64 µg/mL in experiment [13], 32 µg/mL in experiment [14] and more than 256 µg/mL in [15]. The result in [16], in experiment [18], in experiment [19] and in [21] was Active. The outcome in [17] and in experiment [20] was inactive. Also, the IC50 in experiment [6] is more than 100 µg/mL.

As to `CCCCCCCCCCCCSC[C@H]1O[C@H](O[C@@H]2[C@@H](O)[C@H](O[C@H]3O[C@H](CN)[C@@H](O)[C@H](O)[C@H]3O)[C@@H](N)C[C@H]2N)[C@H](O)[C@@H](N)[C@@H]1O.Cl.Cl.Cl.Cl`, the MIC in experiment [1] was 32 µg/mL; in experiment [2], 32 µg/mL; in experiment [3], 16 µg/mL; in experiment [4], 2 µg/mL; in experiment [5], 16 µg/mL; in experiment [7], 16 µg/mL. Moreover, the MIC in experiment [8] was found to be 32 µg/mL; in experiment [9], 16 µg/mL; in experiment [10], 32 µg/mL; in [11], 32 µg/mL; in experiment [12], 2 µg/mL; in experiment [13], 2 µg/mL. In addition, the MIC in [14] turned out to be 4 µg/mL; in experiment [15], 16 µg/mL. Further, in [6], the IC50 is more than 100 µg/mL.

For the origin of these results see ChEMBL document CHEMBL4359907, “Scalable and cost-effective tosylation-mediated synthesis of antifungal and fungal diagnostic 6″-Modified amphiphilic kanamycins” (Eur J Med Chem, 2019).
